ChEMBL document CHEMBL2406918, “Controlling persister cells of Pseudomonas aeruginosa PDO300 by (Z)-4-bromo-5-(bromomethylene)-3-methylfuran-2(5H)-one” (2013)
The source made the active and inactive calls. The rule behind the calls is not given here.

Legend:
Pseudomonas aeruginosa [1] = assay: Antibacterial activity against Pseudomonas aeruginosa PDO300 assessed as effect on total number of suspended planktonic cells at 60 ug/ml after 18 hrs by drop plate method relative to control; type: functional, organism-based
Pseudomonas aeruginosa [2] = assay: Antibacterial activity against Pseudomonas aeruginosa PDO300 assessed as reduction in persistence up to 30 ug/ml after 5 hrs by drop plate method; type: functional, organism-based
Pseudomonas aeruginosa [3] = assay: Bactericidal activity against Pseudomonas aeruginosa PDO300 persister cells at 5 to 50 ug/ml after 2 hrs by drop plate method; type: functional, organism-based
Pseudomonas aeruginosa [4] = assay: Antibacterial activity against Pseudomonas aeruginosa PDO300 assessed as reduction in persistence at 30 ug/ml after 12 hrs by drop plate method relative to control; type: functional; parameters: scale not given: the % may be the effect or the level left
Pseudomonas aeruginosa [5] = assay: Bactericidal activity against Pseudomonas aeruginosa PDO300 persister cells at 5 ug/ml after 2 hrs by drop plate method; type: functional
Pseudomonas aeruginosa [6] = assay: Antibacterial activity against Pseudomonas aeruginosa PDO300 assessed as viable persister cells at 30 ug/ml after 24 hrs by drop plate method; type: functional, organism-based
Pseudomonas aeruginosa [7] = assay: Antibacterial activity against Pseudomonas aeruginosa PDO300 assessed as reduction in persister cells in biofilm after 18 hrs by drop plate method; type: functional, organism-based
Pseudomonas aeruginosa [8] = assay: Antibacterial activity against Pseudomonas aeruginosa PDO300 assessed as cell viability up to 30 ug/ml after 5 hrs by drop plate method; type: functional, organism-based
Pseudomonas aeruginosa [9] = assay: Antibacterial activity against Pseudomonas aeruginosa PDO300 assessed as reduction in viable biofilm cells after 24 hrs by drop plate method; type: functional, organism-based
Escherichia coli = assay: Antibacterial activity against Escherichia coli RP437 assessed as effect on persister cells at pH > 7; type: functional, organism-based
Pseudomonas aeruginosa [10] = assay: Antibacterial activity against Pseudomonas aeruginosa PDO300 assessed as cell death in planktonic phase at 30 ug/ml after 24 hrs by drop plate method; type: functional, organism-based
Pseudomonas aeruginosa [11] = assay: Antibacterial activity against Pseudomonas aeruginosa PDO300 assessed as reduction in biofilm formation at 60 ug/ml after 18 hrs by drop plate method relative to control; type: functional; parameters: scale not given: the % may be the effect or the level left
Pseudomonas aeruginosa [12] = assay: Antibacterial activity against Pseudomonas aeruginosa PDO300 assessed as reduction in persistence after 12 hrs by drop plate method; type: functional, organism-based
Pseudomonas aeruginosa [13] = assay: Antibacterial activity against Pseudomonas aeruginosa PDO300 assessed as viable biofilm cells at 30 ug/ml after 24 hrs by drop plate method (reference value: 0.0005 +/- 0.0008%); type: functional
Pseudomonas aeruginosa [14] = assay: Antibacterial activity against Pseudomonas aeruginosa PDO300 assessed as reduction in viable persister cells in biofilm at 20 to 60 ug/ml after 18 hrs by drop plate method relative to control; type: functional
Pseudomonas aeruginosa [15] = assay: Antibacterial activity against Pseudomonas aeruginosa PDO300 assessed as reduction in planktonic cells in biofilm after 18 hrs by drop plate method; type: functional, organism-based
Pseudomonas aeruginosa [16] = assay: Antibacterial activity against Pseudomonas aeruginosa PDO300 assessed as reduction in viable persister cells in planktonic population of biofilm at 60 ug/ml after 18 hrs by drop plate method relative to control; type: functional
Pseudomonas aeruginosa [17] = assay: Antibacterial activity against Pseudomonas aeruginosa PDO300 assessed as persister cell death in viable biofilm at 5 to 30 ug/mL after 24 hrs by drop plate method; type: functional, organism-based
Pseudomonas aeruginosa [18] = assay: Antibacterial activity against Pseudomonas aeruginosa PDO300 assessed as reduction in biofilm formation after 18 hrs by drop plate method; type: functional, organism-based
Pseudomonas aeruginosa [19] = assay: Antibacterial activity against Pseudomonas aeruginosa PDO300 assessed as reduction in viable persister cells in planktonic population of biofilm after 18 hrs by drop plate method; type: functional, organism-based
Pseudomonas aeruginosa [20] = assay: Bactericidal activity against Pseudomonas aeruginosa PDO300 persister cells at 50 ug/ml after 2 hrs by drop plate method; type: functional, organism-based
Pseudomonas aeruginosa [21] = assay: Antibacterial activity against Pseudomonas aeruginosa PDO300 assessed as growth inhibition at 5 to 30 ug/mL after 12 hrs; type: functional, organism-based

**Q.** Which results are given for `CC1=C(Br)/C(=C/Br)OC1=O`?
**A.** Activity (Pseudomonas aeruginosa [1]): inactive; Activity (Pseudomonas aeruginosa [2]): inactive; Activity (Pseudomonas aeruginosa [3]): Active; Activity (Pseudomonas aeruginosa [4]): 88.5%; Activity (Pseudomonas aeruginosa [5]): 80.9%; Activity (Pseudomonas aeruginosa [6]): Active; Activity (Pseudomonas aeruginosa [7]): Dose-dependent effect; Activity (Pseudomonas aeruginosa [8]): inactive; Activity (Pseudomonas aeruginosa [9]): Dose-dependent effect; Activity (Escherichia coli): Active; Activity (Pseudomonas aeruginosa [10]): Active; Activity (Pseudomonas aeruginosa [11]): 91.6%; Activity (Pseudomonas aeruginosa [12]): Dose-dependent effect; Activity (Pseudomonas aeruginosa [13]): 0.01%; Activity (Pseudomonas aeruginosa [14]): 98.3%; Activity (Pseudomonas aeruginosa [15]): inactive; Activity (Pseudomonas aeruginosa [16]): 96.5%; Activity (Pseudomonas aeruginosa [17]): Active; Activity (Pseudomonas aeruginosa [18]): Dose-dependent effect; Activity (Pseudomonas aeruginosa [19]): Dose-dependent effect; Activity (Pseudomonas aeruginosa [20]): Active; growth inhibition (GI) (Pseudomonas aeruginosa [21]): inactive
